# According to ChEMBL document CHEMBL1140143, “Combining ligand-based pharmacophore modeling, quantitative structure-activity relationship analysis and in silico screening for the discovery of new potent hormone sensitive lipase inhibitors” (J Med Chem, 2008):
# Target: T1, Hormone-sensitive lipase (Rattus norvegicus, UniProt P15304)
# T1 sequence (P15304 whole entry): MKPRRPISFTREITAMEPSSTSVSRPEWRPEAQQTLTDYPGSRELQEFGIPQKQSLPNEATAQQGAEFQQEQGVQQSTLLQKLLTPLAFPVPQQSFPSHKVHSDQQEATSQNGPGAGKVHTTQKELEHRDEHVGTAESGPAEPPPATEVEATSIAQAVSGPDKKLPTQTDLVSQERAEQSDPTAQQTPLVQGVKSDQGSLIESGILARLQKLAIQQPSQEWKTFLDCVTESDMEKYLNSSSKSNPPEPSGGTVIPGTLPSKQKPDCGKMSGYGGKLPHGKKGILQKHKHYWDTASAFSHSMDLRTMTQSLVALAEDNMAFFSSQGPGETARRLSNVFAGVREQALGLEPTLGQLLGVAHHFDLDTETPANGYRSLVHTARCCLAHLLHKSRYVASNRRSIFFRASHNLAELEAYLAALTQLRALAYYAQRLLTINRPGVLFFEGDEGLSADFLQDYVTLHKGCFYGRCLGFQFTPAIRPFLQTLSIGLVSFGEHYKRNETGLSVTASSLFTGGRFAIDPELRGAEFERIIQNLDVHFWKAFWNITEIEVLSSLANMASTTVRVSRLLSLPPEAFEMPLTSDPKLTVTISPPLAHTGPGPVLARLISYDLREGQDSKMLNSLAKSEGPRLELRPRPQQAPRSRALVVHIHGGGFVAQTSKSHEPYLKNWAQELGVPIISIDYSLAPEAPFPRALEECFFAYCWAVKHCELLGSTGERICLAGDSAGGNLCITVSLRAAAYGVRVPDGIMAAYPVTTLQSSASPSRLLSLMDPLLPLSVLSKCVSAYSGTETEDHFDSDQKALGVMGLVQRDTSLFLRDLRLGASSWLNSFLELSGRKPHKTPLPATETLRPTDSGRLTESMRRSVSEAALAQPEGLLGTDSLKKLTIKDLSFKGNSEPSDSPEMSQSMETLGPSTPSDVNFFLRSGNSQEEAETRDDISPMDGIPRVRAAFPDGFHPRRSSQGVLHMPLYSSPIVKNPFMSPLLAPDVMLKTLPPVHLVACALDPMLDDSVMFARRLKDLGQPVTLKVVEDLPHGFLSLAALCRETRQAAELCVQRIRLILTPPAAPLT
# Assay: Inhibition of HSL in Wistar rat isolated fat cells by spectrophotometric assay
row,Structure (SMILES),IC50
1,Cc1c(C(C)C)c(=O)on1C(=O)N(C)CCc1ccccc1,180 nM
2,Cc1c(CCOc2ccccc2)c(=O)on1C(=O)N1CCCCC1,4 nM
3,Cc1c(Cc2ccccc2)c(=O)on1C(=O)N1CCCCC1,5 nM
4,Cc1c(C(C)C)c(=O)on1C(=O)N1CCN(C)CC1,314 nM
5,Cc1c(C(C)C)c(=O)on1C(=O)N1CCCCCCC1,900 nM
6,Cc1c(C(C)C)c(=O)on1C(=O)N1CCN(Cc2ccccc2)CC1,65 nM
7,Cc1c(C(C)C)c(=O)on1C(=O)N1CCC(c2ccc(C(F)(F)F)cc2)CC1,160 nM
8,CCOc1nn(-c2cccc(OCc3ccccc3)c2)c(=O)o1,19.4 nM
9,Cc1c(C(C)C)c(=O)on1C(=O)N1CCC(C(=O)c2ccccc2)CC1,250 nM
10,Cc1c(C2CCOCC2)c(=O)on1C(=O)N1CCCCC1,71 nM
11,CSc1nc(-c2ccc(Cl)cc2)nn1C(=O)N1CCOCC1,35.3 nM
12,CSc1nc(-c2ccc(C)cc2)nn1C(=O)N(C)C,0.53 nM
13,Cc1c(C(C)C)c(=O)on1C(=O)N1CC(C)CCC1C (stereo not given),460 nM
14,CCCCCCSc1nc(-c2ccc(C)cc2)nn1C(=O)N(C)C,882 nM
15,CCCCCCSc1nc(-c2ccc(Cl)cc2)nn1C(=O)N(C)c1ccccc1,7.06 nM
16,Cc1c(C2CCCCC2)c(=O)on1C(=O)N1CCCCC1,11 nM
17,COCCc1c(C)n(C(=O)N2CCC(c3cccc(F)c3)CC2)oc1=O,20 nM
18,Cc1c(C(C)C)c(=O)on1C(=O)N1CCN(c2ccccc2)CC1,6 nM
19,Cc1c(C2CCS(=O)(=O)CC2)c(=O)on1C(=O)N1CCCCC1,55 nM
20,Cc1c(Sc2ccccc2)c(=O)on1C(=O)N1CCCCC1,6 nM
21,Cc1c(C(C)C)c(=O)on1C(=O)N1CCN(c2ncccn2)CC1,67 nM
22,Cc1c(C(C)C)c(=O)on1C(=O)N1CCN(c2ccccc2Cl)CC1,30 nM
23,Cc1c(C(C)C)c(=O)on1C(=O)N(C)Cc1ccccc1,5 nM
24,CSc1nc(-c2ccc(Cl)cc2)nn1C(=O)N(C)C,0.353 nM
25,Cc1c(C(C)C)c(=O)on1C(=O)N1CCCCC1,2 nM
26,Cc1c(C(C)C)c(=O)on1C(=O)N(C)c1ccccn1,240 nM
27,Cc1ccc(CN(C)C(=O)n2oc(=O)c(C(C)C)c2C)cc1,408 nM

row,Structure (SMILES),IC50
1,Cc1c(C(C)C)c(=O)on1C(=O)N(C)Cc1ccc(F)cc1,111 nM
2,CSc1nc(-c2ccc(Cl)cc2)nn1C(=O)N1CCCCC1,1.76 nM
3,Cc1c(C(C)C)c(=O)on1C(=O)N(C)c1ccccc1,7 nM
4,Cc1c(C(C)C)c(=O)on1C(=O)N(C)CC(N)=O,> 1000 nM
5,COc1ccc(-c2nc(SC)n(C(=O)N(C)C)n2)cc1,15.9 nM
6,Cc1ccc(-c2nc(SCc3ccccc3)[nH]c(=O)c2CCO)cc1,2980 nM
7,Cc1c(C(C)C)c(=O)on1C(=O)NCC1CCCCC1,72 nM
8,Cc1c(C(C)C)c(=O)on1C(=O)N(C)Cc1ccco1,4 nM
9,CCOCCc1c(C)n(C(=O)N2CCC(C)CC2)oc1=O,3 nM
10,Cc1c(C2CCCC2)c(=O)on1C(=O)N1CCCCC1,6 nM
11,CSc1nc(-c2ccc(-c3ccccc3)cc2)nn1C(=O)N(C)C,26.5 nM
12,COCCc1c(C)n(C(=O)N2CCC(c3cccc(C)c3)CC2)oc1=O,23 nM
13,Cc1c(C(C)C)c(=O)on1C(=O)Nc1ccccc1,> 1000 nM
14,CCc1c(C)n(C(=O)N2CCCCC2)oc1=O,18 nM
15,Cc1c(C(C)C)c(=O)on1C(=O)N1CCC[C@H](C)C1,3 nM
16,Cc1c(C(C)C)c(=O)on1C(=O)N1CCNCC1,> 1000 nM
17,CCN(CC)C(=O)C1CCCN(C(=O)n2oc(=O)c(C(C)C)c2C)C1 (stereo not given),> 1000 nM
18,CSc1nc(-c2cccc3ccccc23)nn1C(=O)N(C)C,35.3 nM
19,O=C(N1CCCCC1)n1nc(-c2ccc(Cl)cc2)nc1SCC(F)(F)F,7.06 nM
20,Cc1c(C(C)C)c(=O)on1C(=O)N(C)C1CCCCC1,9 nM
21,Cc1c(C(C)C)c(=O)on1C(=O)N1CCC(c2ccccc2)CC1,12 nM
22,Cc1c(C(C)C)c(=O)on1C(=O)N1CCC(=O)CC1,200 nM
23,CCSc1nc(-c2ccc(Cl)cc2)nn1C(=O)N(C)C,3.71 nM
24,CCCCc1c(C)n(C(=O)N2CCC(C)CC2)oc1=O,1 nM
25,Cc1c(C(C)C)c(=O)on1C(=O)N1CCC(c2ccc(C(C)(C)C)cc2)CC1,480 nM
26,Cc1c(C(C)C)c(=O)on1C(=O)N1CCCC1,15 nM
27,Cc1c(C2CCCCC2)c(=O)on1C(=O)N1CCC(C)CC1,4 nM

row,Structure (SMILES),IC50
1,Cc1c(S(=O)(=O)c2ccc(Cl)cc2)c(=O)on1C(=O)N1CCCCC1,35 nM
2,COCCc1c(C)n(C(=O)N2CCCCC2)oc1=O,10 nM
3,Cc1c(C(C)C)c(=O)on1C(=O)N(C)c1ccc(Cl)cc1,17 nM
4,CSc1nc(-c2ccc(C)cc2)nn1C(=O)N(C)c1ccccc1,1.76 nM
5,CSc1nc(-c2ccc(OC(F)(F)F)cc2)nn1C(=O)N(C)c1ccccc1,4.41 nM
6,CSc1nc(/C=C/c2ccccc2)nn1C(=O)N(C)C,882 nM
7,Cc1c(C2CCSCC2)c(=O)on1C(=O)N1CCCCC1,11 nM
8,COc1nn(-c2ccc(NC(=O)c3ccc(C(C)(C)C)cc3)cc2)c(=O)o1,0.41 nM
9,Cc1c(C(C)C)c(=O)on1C(=O)N1CCC(Cc2ccccc2)CC1,102 nM
10,Cc1c(C(C)C)c(=O)on1C(=O)N1CCCc2ccccc21,60 nM
11,CSc1nc(-c2ccc(Cl)cc2)nn1C(=O)N(C)c1ccccc1,2.82 nM
12,Cc1c(C(C)C)c(=O)on1C(=O)N1CCC[C@@H](C)C1,20 nM
13,Cc1c(C(C)C)c(=O)on1C(=O)N1CCC(C(=O)N(C)C)CC1,> 1000 nM
14,Cc1ccc(-c2nc(SCC(F)(F)F)n(C(=O)N(C)C)n2)cc1,10.6 nM
15,Cc1c(C(C)C)c(=O)on1C(=O)N(C)Cc1cccs1,2 nM
16,Cc1c(C(C)C)c(=O)on1C(=O)N(C)Cc1ccccc1F,4 nM
17,COCCc1c(C)n(C(=O)N2CCC(c3ccccc3)CC2)oc1=O,11 nM
18,Cc1c(C(C)C)c(=O)on1C(=O)N1CCCC(C)(C)C1,7 nM
19,CCCCc1c(C)n(C(=O)N2CCCCC2)oc1=O,7 nM
20,Cc1c(C(C)C)c(=O)on1C(=O)N1CCC(C)CC1,6 nM
21,Cc1c(C(C)C)c(=O)on1C(=O)N1CCOCC1,52 nM
22,O=C(N1CCCCC1)n1nc(-c2ccc(Cl)cc2)nc1SC1CCCCC1,882 nM
23,Cc1c(C(C)C)c(=O)on1C(=O)N1CCC(O)CC1,166 nM
24,Cc1c(C(C)C)c(=O)on1C(=O)N1CCc2ccccc21,> 1000 nM
25,CSc1nc(-c2ccc(OC(F)(F)F)cc2)nn1C(=O)N(C)C,1.76 nM
26,Cc1c(C(C)C)c(=O)on1C(=O)N(C)CCC#N,> 1000 nM
27,Cc1c(Cc2cc3ccccc3n2C)c(=O)on1C(=O)N1CCCCC1,17 nM

row,Structure (SMILES),IC50
1,CCSc1nc(-c2ccc(OC)cc2)nn1C(=O)N(C)c1ccccc1,5.29 nM
2,Cc1c(C(C)C)c(=O)on1C(=O)N(C)Cc1cccc(F)c1,5 nM
3,Cc1c(C(C)C)c(=O)on1C(=O)N1CCSCC1,8 nM
4,Cc1c(C)n(C(=O)N2CCCCC2)oc1=O,13 nM
5,O=C(N1CCOCC1)n1nc(-c2ccc(Cl)cc2)nc1SCC(F)(F)F,159 nM
6,Cc1c(-c2ccccc2)c(=O)on1C(=O)N1CCCCC1,14 nM
7,Cc1c(C(C)C)c(=O)on1C(=O)N1CCCCC1C (stereo not given),93 nM
8,Cc1c(C(C)C)c(=O)on1C(=O)N1CC=CC1,72 nM
9,Cc1c(CC(C)C)c(=O)on1C(=O)N1CCCCC1,5 nM
10,Cc1c(C2CCCC2)c(=O)on1C(=O)N1CCC(c2ccccc2)CC1,24 nM
11,CCN(CC)C(=O)n1oc(=O)c(C(C)C)c1C,1400 nM
12,Cc1c(C(C)C)c(=O)on1C(=O)N1CCCC(CO)C1 (stereo not given),180 nM
13,CCCCCCSc1nc(-c2ccc(Cl)cc2)nn1C(=O)N1CCOCC1,882 nM
14,CN(C(=O)n1nc(-c2ccc(Cl)cc2)nc1SCC(F)(F)F)c1ccccc1,3 nM
15,O=C(N1CCCCC1)n1nc(-c2ccc(Cl)cc2)nc1SCC1CC1,3.53 nM
16,Cc1c(C(C)C)c(=O)on1C(=O)N1CCCCCC1,62 nM
17,Cc1c(C(C)C)c(=O)on1C(=O)N1CCC(c2cccc(F)c2)CC1,12 nM
18,CCOC(=O)C1CCN(C(=O)n2oc(=O)c(C(C)C)c2C)CC1,6 nM
19,CCOC(=O)C1CCCN(C(=O)n2oc(=O)c(C(C)C)c2C)C1 (stereo not given),28 nM
20,Cc1c(C2CCSCC2)c(=O)on1C(=O)N1CCC(C)CC1,6 nM
21,Cc1c(C(C)C)c(=O)on1C(=O)N1CCC(O)(c2ccccc2)CC1,> 1000 nM
22,Cc1c(C(C)(C)C)c(=O)on1C(=O)N1CCCCC1,14 nM
23,CSc1nc(-c2ccc(C)cc2)nn1C(=O)N1CCOCC1,70.6 nM
24,CCSc1nc(-c2ccc(OC)cc2)nn1C(=O)N1CCOCC1,159 nM
